According to patent US20030083558A1, “Method of examining and diagnosing skin health” (priority 2001, published 2003):

Key:
[1] = system: IL-1 RA; assay: Study 2: IL-1 RA in ISF by ELISA, effect of supplementation; format: in vivo, human
Experimental: (§1) The laser made four pores at each collection site.
(§2) The other skin analytes were measured in Study 2 using standard ELISA kits: MMP-1 (ELISA Cat # QIA55, Oncogene Research Products, Cambridge Mass.); Total IgE (ELISA Cat # RE59061, IBL, Hamburg, Germany distributed by KMI Diagnostics); Non Extraction IGF-1 (ELISA Cat # DSL-10-2800, Diagnostics Systems Laboratories, Webster Tex.); IL-1 RA (ELISA Cat # DRA00, R&D Systems, Minneapolis, Minn.); IL-1A (ELISA Cat # EH2IL1A, Pierce/Endogen, Rockford, Ill.).

[2] = system: MMP-1; assay: Study 2: MMP-1 in ISF by ELISA, effect of supplementation; format: in vivo, human
Experimental: as §1, §2

[3] = system: IgE; assay: Study 2: IgE in ISF by ELISA, effect of supplementation; format: in vivo, human
Experimental: as §1, §2

[4] = design: species or system human; details: in vivo
Excerpt: The studies included non-smoking, female subjects of good health over the age of 35 years and under the age 55 years with skin type of III or less by the Fitzpatrick Skin classification. […] Acceptable subjects were chronologically enrolled in the study following a randomization code describing what treatment would be applied to which dorsal forearm. […] The subject applied a blinded emulsion designated by a letter to one dorsal forearm and an alternative emulsion with a different designation to the opposite arm, twice per day, for three weeks. […] ISF was extracted from the dorsal forearm, volar upper arm, and serum at one week (“Week 2”) and three weeks after dosing (“Week 4”) and two weeks after the cessation of dosing (“Week 6”).
ISF was extracted from both the treatment site (dorsal forearm) as well as an adjacent, untreated site volar upper arm) following one week of therapy and three weeks of therapy. Subjects ended treatment at this point and returned for a final extraction two weeks later.
The ISF collection period lasted between three and six hours, typically four hours.

[5] = system: IL-1A; assay: Study 2: IL-1A in ISF by ELISA, effect of supplementation; format: in vivo, human
Experimental: as §1, §2

## O=C1O[C@H]([C@@H](O)CO)C(O)=C1O [Vitamin C]
[1]
  Effect of vitamin C supplement on concentration of IL-1 RA in ISF: significantly increased
[2]
  Effect of vitamin C supplement on concentration of MMP-1 in ISF: significantly increased
[2]; sun-exposed ISF
  MMP-1 (log), Sun-exposed, Supplement Yes, MEAN: 0.64
[2]; sun-protected ISF
  MMP-1 (log), Sun-protected, Supplement Yes, MEAN: 0.91
[3]
  Effect of vitamin C supplement on concentration of IgE in ISF: significantly increased
[4]
  Influence of topical application on levels at an adjacent, untreated site or the serum: does not influence
  Level at application site two weeks after ending therapy (week six): decreased to approximate baseline values
  Response of serum level to topical therapy: did not respond
[5]
  Effect of vitamin C supplement on concentration of IL-1A in ISF: significantly increased
